The source of these data is US20220089592A1, “IMIDAZO[1,2-A]PYRIDINYL DERIVATIVES AS IRAK4 INHIBITORS” (priority 2019, published 2022).

Structures can show the parent of a compound that is named as a salt.

In this assay the target is T1, IRAK4 (Homo sapiens, UniProt Q9NWZ3).
T1 sequence (Q9NWZ3 1-460): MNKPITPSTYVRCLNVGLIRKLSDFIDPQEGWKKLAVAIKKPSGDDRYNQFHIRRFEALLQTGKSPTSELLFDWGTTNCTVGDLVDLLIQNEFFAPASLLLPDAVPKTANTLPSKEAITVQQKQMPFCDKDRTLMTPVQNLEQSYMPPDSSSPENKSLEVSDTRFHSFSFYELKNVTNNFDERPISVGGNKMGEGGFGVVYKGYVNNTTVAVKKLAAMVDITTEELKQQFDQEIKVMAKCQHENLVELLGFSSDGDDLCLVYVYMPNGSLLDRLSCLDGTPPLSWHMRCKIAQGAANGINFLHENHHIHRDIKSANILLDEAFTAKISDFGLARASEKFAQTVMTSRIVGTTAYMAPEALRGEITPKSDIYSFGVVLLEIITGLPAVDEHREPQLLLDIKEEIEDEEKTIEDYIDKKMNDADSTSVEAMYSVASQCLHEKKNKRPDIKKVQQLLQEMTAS
The assay is described as follows: 2-hour 1 mM ATP IRAK4 Biochemical assay (as above, but with 100 pM IRAK4 and 1 mM ATP). Conditions: IRAK4 MSD BIOCHEMICAL (1 mM ATP) IC50 (μM), 100 pM IRAK4, 2 hours. The essentials:
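MSD electrochemiluminescence read-out: biotinylated peptide product bound to streptavidin plates, probed with anti-P-Thr rabbit antibody and Sulfo-Tag goat anti-rabbit. Kinase reaction used 1 mM ATP and 100 pM IRAK4 over 2 hours before EDTA quench.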
Usually IC50 stands for the concentration that gives 50% inhibition. A lower IC50 goes with inhibition by little substance. In turn, `COc1ncccc1C(=O)Nc1cn2cc(C34COC(C)(C3)C4)nc2c(F)c1OC1CCC1` [Example 436, N-(7-cyclobutoxy-8-fluoro-2-(1-methyl-2-oxabicyclo[2.1.1]hexan-4-yl)imidazo[1,2-a]pyridin-6-yl)-2-methoxynicotinamide 2,2,2-trifluoroacetate] registered a concentration for half-maximal inhibition (IC50) of 0.029 µM. `COc1nc(NC(=O)c2cccc(C(F)F)n2)cn2cc(C3CC3)nc12` [Example 562, N-(2-cyclopropyl-8-methoxyimidazo[1,2-a]pyrazin-6-yl)-6-(difluoromethyl)picolinamide 2,2,2-trifluoroacetate] yielded a concentration for half-maximal inhibition (IC50) of 0.053 µM. `CCOc1cc(NC(=O)c2cccc(C(F)F)n2)cn2cc([C@@H]3C4COC[C@H]43)nc12` (relative stereo) [Example 306, N-(2-((1R*,5S*,6s*)-3-oxabicyclo[3.1.0]hexan-6-yl)-8-ethoxyimidazo[1,2-a]pyridin-6-yl)-6-(difluoromethyl)picolinamide]: the IC50 is 0.007 µM. This IC50 lies about 7.6-fold lower than the previous one. Then `CC(C)Oc1cc2nc(C(C)(C)C(=O)O)cn2cc1NC(=O)c1cccc(C(F)F)n1` [Example 262, 2-(6-(6-(difluoromethyl)picolinamido)-7-isopropoxyimidazo[1,2-a]pyridin-2-yl)-2-methylpropanoic acid], with 0.006 µM; and `O=C(Nc1cn2cc(C3CCOCC3)nc2cc1Cl)c1cccc(C(F)F)n1` [Example 405, N-(7-chloro-2-(tetrahydro-2H-pyran-4-yl)imidazo[1,2-a]pyridin-6-yl)-6-(difluoromethyl)picolinamide 2,2,2-trifluoroacetate], with 0.006 µM. As for `CC(C)Oc1nc2nc(C34COC(C)(C3)C4)cn2cc1NC(=O)c1cccn(C(F)F)c1=O` [Example 496, 1-(difluoromethyl)-N-(7-isopropoxy-2-(1-methyl-2-oxabicyclo[2.1.1]hexan-4-yl)imidazo[1,2-a]pyrimidin-6-yl)-2-oxo-1,2-dihydropyridine-3-carboxamide 2,2,2-trifluoroacetate], the figure is 0.001 µM; as for `CCOc1cc2nc(C3C4COCC43)cn2cc1NC(=O)c1ccn(CC(F)(F)F)n1` (stereo not shown) [Example 235, N-(2-(3-oxabicyclo[3.1.0]hexan-6-yl)-7-ethoxyimidazo[1,2-a]pyridin-6-yl)-1-(2,2,2-trifluoroethyl)-1H-pyrazole-3-carboxamide], 0.023 µM; as for `COc1cc(NC(=O)c2cccc(C(F)F)n2)cn2cc([C@]3(C)C[C@@H](OC)C3)nc12` [Example 271, 6-(difluoromethyl)-N-(8-methoxy-2-((1r*,3r*)-3-methoxy-1-methylcyclobutyl)imidazo[1,2-a]pyridin-6-yl)picolinamide], 0.016 µM. In turn, `CC(C)Oc1c(NC(=O)c2ccn(C)n2)cn2cc(C34COC(C)(C3)C4)nc2c1F` [Example 432, N-(8-fluoro-7-isopropoxy-2-(1-methyl-2-oxabicyclo[2.1.1]hexan-4-yl)imidazo[1,2-a]pyridin-6-yl)-1-methyl-1H-pyrazole-3-carboxamide 2,2,2-trifluoroacetate] showed a 50% inhibitory concentration (IC50) of 0.005 µM. As to `COc1ncccc1C(=O)Nc1cn2cc(C34COC(C)(C3)C4)nc2cc1OC(C)C(F)(F)F` (single isomer, unassigned) [Example 318, 2-methoxy-N-(2-(1-methyl-2-oxabicyclo[2.1.1]hexan-4-yl)-7-((1,1,1-trifluoropropan-2-yl)oxy)imidazo[1,2-a]pyridin-6-yl)nicotinamide], the half-maximal inhibitory concentration (IC50) came to 0.005 µM. Then `CC(C)Cc1cc2nc(C3CCOCC3)cn2cc1NC(=O)c1cccc(C(F)F)n1` [Example 404, 6-(difluoromethyl)-N-(7-isobutyl-2-(tetrahydro-2H-pyran-4-yl)imidazo[1,2-a]pyridin-6-yl)picolinamide], with 0.004 µM; and `CC12CC(c3cn4cc(NC(=O)c5cccc(C(F)F)n5)nc(OCc5ccccc5)c4n3)(CO1)C2` [Example 199, N-(8-(benzyloxy)-2-(1-methyl-2-oxabicyclo[2.1.1]hexan-4-yl)imidazo[1,2-a]pyrazin-6-yl)-6-(difluoromethyl)picolinamide], with 0.016 µM; and `Cc1cc(NC(=O)c2cccc3ccnn23)cn2cc(C34COC(C)(C3)C4)nc12` [Example 408, N-(8-methyl-2-(1-methyl-2-oxabicyclo[2.1.1]hexan-4-yl)imidazo[1,2-a]pyridin-6-yl)pyrazolo[1,5-a]pyridine-7-carboxamide 2,2,2-trifluoroacetate], with 0.025 µM. On to `CC(C)Oc1cc2nc(C3CCOCC3)cn2cc1NC(=O)c1cccc(C2CCOC2)n1` (stereo not shown) [Example 380, N-(7-isopropoxy-2-(tetrahydro-2H-pyran-4-yl)imidazo[1,2-a]pyridin-6-yl)-6-(tetrahydrofuran-3-yl)picolinamide hydrochloride], for which the IC50 is 0.002 µM. On to `CC(C)Oc1cc2nc(C3CCOCC3)c(Cl)n2cc1NC(=O)c1cccc(C(F)F)n1` [Example 353, N-(3-chloro-7-isopropoxy-2-(tetrahydro-2H-pyran-4-yl)imidazo[1,2-a]pyridin-6-yl)-6-(difluoromethyl)picolinamide], for which half-maximal inhibition (IC50) required 0.011 µM. As for `COc1nc(NC(=O)c2cccc(C(F)F)n2)cn2cc(C3CC34CCOCC4)nc12` (stereo not shown) [Example 558, 6-(difluoromethyl)-N-(8-methoxy-2-(6-oxaspiro[2.5]octan-1-yl)imidazo[1,2-a]pyrazin-6-yl)picolinamide 2,2,2-trifluoroacetate], the figure is 0.044 µM; as for `COC(=O)C(C)(C)c1cn2cc(NC(=O)c3cccc(C(F)F)n3)c(OC(C)C)cc2n1` [Example 261, methyl 2-(6-(6-(difluoromethyl)picolinamido)-7-isopropoxyimidazo[1,2-a]pyridin-2-yl)-2-methylpropanoate], 0.002 µM. `COc1ncccc1C(=O)Nc1cn2cc(C34COC(C)(C3)C4)nc2nc1OC(C)C` [Example 346, N-(7-isopropoxy-2-(1-methyl-2-oxabicyclo[2.1.1]hexan-4-yl)imidazo[1,2-a]pyrimidin-6-yl)-2-methoxynicotinamide] gave a half-inhibitory concentration (IC50) of 0.001 µM.

Molecule `CC(C)Oc1c(NC(=O)c2cccnc2OC(F)F)cn2cc(C34COC(C)(C3)C4)nc2c1F` [Example 323, 2-(difluoromethoxy)-N-(8-fluoro-7-isopropoxy-2-(1-methyl-2-oxabicyclo[2.1.1]hexan-4-yl)imidazo[1,2-a]pyridin-6-yl)nicotinamide] yielded an IC50 of 0.073 µM. `COc1nc(NC(=O)c2cccc(C(F)F)n2)cn2cc(C34CC(C(F)F)(C3)C4)nc12` [Example 552, 6-(difluoromethyl)-N-(2-(3-(difluoromethyl)bicyclo[1.1.1]pentan-1-yl)-8-methoxyimidazo[1,2-a]pyrazin-6-yl)picolinamide 2,2,2-trifluoroacetate] had a half-maximal inhibitory concentration (IC50) of 0.017 µM. In the case of `O=C(Nc1cn2cc(C3CCOCC3)nc2cc1OCCOC(F)F)c1cccc(C(F)F)n1` [Example 192, N-(7-(2-(difluoromethoxy)ethoxy)-2-(tetrahydro-2H-pyran-4-yl)imidazo[1,2-a]pyridin-6-yl)-6-(difluoromethyl)picolinamide], half-maximal inhibition (IC50) was put at 0.002 µM. Take `CCOc1cc2nc(CCCOC)cn2cc1NC(=O)c1cccc(C(F)F)n1` [Example 12, 6-(difluoromethyl)-N-(7-ethoxy-2-(3-methoxypropyl)imidazo[1,2-a]pyridin-6-yl)picolinamide]: 0.001 µM corresponded to half-maximal inhibition (IC50). For the molecule `CC(C)Oc1c(NC(=O)c2coc(C3CC3)n2)cn2cc(C34COC(C)(C3)C4)nc2c1F` [Example 431, 2-cyclopropyl-N-(8-fluoro-7-isopropoxy-2-(1-methyl-2-oxabicyclo[2.1.1]hexan-4-yl)imidazo[1,2-a]pyridin-6-yl)oxazole-4-carboxamide], the IC50 was 0.001 µM. Regarding `CC12CC(c3cn4cc(NC(=O)c5cccc(C(F)F)n5)c(OC(F)F)cc4n3)(CO1)C2` [Example 395, N-(7-(difluoromethoxy)-2-(1-methyl-2-oxabicyclo[2.1.1]hexan-4-yl)imidazo[1,2-a]pyridin-6-yl)-6-(difluoromethyl)picolinamide 2,2,2-trifluoroacetate], the IC50 came out at 0.001 µM. Consider `CCOc1cc2nc(C34COCC3C4)cn2cc1NC(=O)c1cccc(C(F)F)n1` (stereo not shown) [Example 518, N-(2-(3-oxabicyclo[3.1.0]hexan-1-yl)-7-ethoxyimidazo[1,2-a]pyridin-6-yl)-6-(difluoromethyl)picolinamide], for which the midpoint of inhibition, the IC50, lay at 0.001 µM. This lies in the single-digit nanomolar range. As for `COc1nc(NC(=O)c2cccc(C(F)(F)F)n2)cn2cc(C34COC(C)(C3)C4)nc12` [Example 449, N-(8-methoxy-2-(1-methyl-2-oxabicyclo[2.1.1]hexan-4-yl)imidazo[1,2-a]pyrazin-6-yl)-6-(trifluoromethyl)picolinamide 2,2,2-trifluoroacetate], the figure is 0.064 µM; as for `CC(C)Oc1cc(NC(=O)c2cccc(C(F)F)n2)cn2cc(C3CCOCC3)nc12` [Example 418, 6-(difluoromethyl)-N-(8-isopropoxy-2-(tetrahydro-2H-pyran-4-yl)imidazo[1,2-a]pyridin-6-yl)picolinamide 2,2,2-trifluoroacetate], 0.021 µM. As for `COc1cc(NC(=O)c2cccc(C(F)F)n2)cn2cc(C3CCCOC3)nc12` (racemic) [Example 268, 6-(difluoromethyl)-N-(8-methoxy-2-(tetrahydro-2H-pyran-3-yl)imidazo[1,2-a]pyridin-6-yl)picolinamide], the figure is 0.002 µM.
